Assay results as given in patent publication US20040033273A1, “Withasol and methods of use” (AyurCore, Inc., priority 2001, published 2004).

Tested on: BALB/c mouse implanted with ascitic sarcoma (S-180), CP treated
Conditions: for Hb / Platelet Count (×10^3/mcl) / RBC Count (×10^6/mcl) / WBC Difference Count (%) Lymphocytes / WBC Difference Count (%) Polymorph / WBC Total Count (×10^3/mcl): CP +: CP 150 mg/kg ip day 11, coded drug 100 mg/kg (vehicle for CP alone) po day 1-15, blood day 16; for Difference in Weight (g) from Day 1 to 16: CP +: S-180 bearing antigen-challenged mice, CP 150 mg/kg ip day 11, coded drug 100 mg/kg (vehicle for CP alone) po day 1-15; for change in body weight / change in HA antibody titers / change in HL antibody titers / change in hemoglobin content / change in platelet counts / change in red cell counts / change in white cell differential counts / change in white cell total counts: vs group IV (tumor +, CP +, vehicle), drug po day 1-15, CP 150 mg/kg ip day 11, ANOVA; for change in HA antibody titers / change in HL antibody titers / change in hemoglobin content / change in platelet counts / change in red cell counts / change in white cell differential counts / change in white cell total counts: day 16
[1] = Tumor +, CP +: CP 150 mg/kg ip day 11, coded drug 100 mg/kg (vehicle for CP alone) po day 1-15, serum day 16, mean +/- SD
[2] = tumor-bearing CP-treated mice, vs CP alone

SMILES	Hb (Tumor +, mean +/- SD) [g/dL]	Platelet Count (×10^3/mcl) (Tumor +, mean +/- SD)	RBC Count (×10^6/mcl) (Tumor +, mean +/- SD)	WBC Difference Count (%) Lymphocytes (Tumor +, mean +/- SD)	WBC Difference Count (%) Polymorph (Tumor +, mean +/- SD)	WBC Total Count (×10^3/mcl) (Tumor +, mean +/- SD)	CF Titre (Log2) [1]	HA Titre (Log2) [1]	Difference in Weight (g) from Day 1 to 16 (Tumor +, mean +/- SD) [g]	effect on CP-induced immunosuppression / immunostimulatory activity (conclusion) [2]	effect on CP-induced myelosuppression (conclusion) [2]	other activity indicated (conclusion) [2]	change in body weight	change in HA antibody titers	change in HL antibody titers	change in hemoglobin content	change in platelet counts	change in red cell counts	change in white cell differential counts	change in white cell total counts
O=C1O[C@H]([C@@H](O)CO)C(O)=C1O [Drug T, Vitamin C]	15.37 ± 1.481	822.67 +/− 234.142 ×10^3/mcl	4.25 +/− 0.661 ×10^6/mcl	63.30 +/− 6.266%	36.70 +/− 6.266%	7.13 +/− 0.949 ×10^3/mcl	5.67 +/− 0.516 Log2	5.33 +/− 0.516 Log2	-2.67 ± 1.751	protective effect on CP-induced myelo and immunosuppression	protective effect on CP-induced myelo and immunosuppression	mild hematinic activity	no significant change	significantly increased	significantly increased	significantly increased	No significant change	No significant change	no significant change	significantly increased
O=S(=O)(O)CCS [Mesna]	14.08 ± 1.689	608.83 +/− 239.813 ×10^3/mcl	4.12 +/− 0.609 ×10^6/mcl	62.42 +/− 9.902%	37.58 +/− 9.902%	3.67 +/− 1.218 ×10^3/mcl	–	2.17 +/− 0.408 Log2	-2.5 ± 1.049	no effect on body weight and CP-induced myelo and immunosuppression	no effect on body weight and CP-induced myelo and immunosuppression	–	no significant change	no significant change	no significant change	no significant change	no significant change	no significant change	no significant change	no significant change
